The results in this text go back to patent US7211545B2, “Imidazo[1,2-a]pyrimidine and fungicidal compositions containing thereof” (Sumitomo Chemical Company, Limited, priority 2001, dated 2007).

Data set [1] has as its system Sphaerotheca fuliginea. The experiment in a line: Test Example 4: preventive efficacy against Sphaerotheca fuliginea on cucumber (comparison with Reference Compound A). In kind it is in vivo. As to conditions: 500 ppm flowable, foliar spray on cucumber leaves, inoculated after spraying, 23° C., 12 days. The protocol:
The control effect of the present compound was evaluated by visually observing the area of a lesion on a plant under test in investigation and comparing the area of a lesion in a non-treatment group and the area of a lesion in a group treated with the present compound. Sand loam was compacted in plastic pots, cucumbers (Ochiai Aonagafushinari) were seeded and grown in a greenhouse for 12 days. Then, each of Reference Compound A and Compound 182 was formulated into flowable formulations according to Formulation Example 6, then, diluted with water to provide prescribed concentration (500 ppm), and sprayed over the foliage so as to give sufficient adhesion on the surface of cucumber leaves. After spraying, the plants were air-dried, and inoculated with spores of Sphaerotheca fuliginea. After the inoculation, the cucumbers were placed at 23° C. for 12 days, and the control effect was examined. As a result, areas of lesions on the plant treated with Reference Compound A were in the range of 75% to 100% on those of the untreated groups, on the other hand, areas of lesions on the plant treated with Compound 182 was not greater than 1% of infested areas on those of the untreated groups.

For data set [2], the system named is Botrytis cinerea. The experiment in a line: Test Example 3: preventive efficacy against Botrytis cinerea on cucumber (comparison with Reference Compound A). The settings on record: 500 ppm flowable, foliar spray on cucumber cotyledons, inoculated after spraying, 12° C. humid, 4 days. The data set is classed as in vivo. The protocol:
The control effect of the present compound was evaluated by visually observing the area of a lesion on a plant under test in investigation and comparing the area of a lesion in a non-treatment group and the area of a lesion in a group treated with the present compound. Sand loam was compacted in plastic pots, cucumbers (Ochiai Aonagafushinari) were seeded and grown in a greenhouse for 10 days. Then, each of Reference Compound A and Compound 182 was formulated into a flowable formulation according to Formulation Example 6, then, diluted with water to provide prescribed concentration (500 ppm), and sprayed over the foliage so as to give sufficient adhesion on the surface of cucumber cotyledons. After spraying, the plants were air-dried, and PDA medium containing spores of Botrytis cinerea were attached on cucumber cotyledons. After the inoculation, the cucumbers were placed in a humid condition at 12° C. for 4 days, and the control effect was examined. As a result, areas of lesions on the plant treated with Reference Compound A were in the range of 75% to 100% on those of the untreated groups, on the other hand, areas of lesions on the plant treated with Compound 182 was not greater than 1% of areas of lesions on those of the untreated groups.

As for `Cc1nc2nccn2c(N2CCC(C)CC2)c1-c1c(F)cccc1Cl` [Compound 428, 5-(4-methylpiperidin-1-yl)-6-(2-chloro-6-fluorophenyl)-7-methylimidazo[1,2-a]pyrimidine], the melting point (usually the temperature, or range, at which the solid turns liquid) is 144.5 °C.

The compound `CC1CCN(c2c(-c3c(F)cc(F)cc3F)c(Cl)nc3nccn23)CC1` [Compound 55, 5-(4-methylpiperidin-1-yl)-6-(2,4,6-trifluorophenyl)-7-chloroimidazo[1,2-a]pyrimidine] returned a melting point of 200.8 °C.

In the case of `Cc1cc(C)n(-c2c(-c3c(F)cc(F)cc3F)c(Cl)nc3nccn23)n1` [Compound 89, 5-(3,5-dimethylpyrazol-1-yl)-6-(2,4,6-trifluorophenyl)-7-chloroimidazo[1,2-a]pyrimidine], the melting point was determined as 150.4 °C.

`CCCN(CCC)c1c(-c2c(F)cc(F)cc2F)c(Cl)nc2nccn12` [Compound 8, 5-(di-n-propylamino)-6-(2,4,6-trifluorophenyl)-7-chloroimidazo[1,2-a]pyrimidine]: the melting point worked out at 95.4 °C.

Consider `CC1CCN(c2c(-c3c(F)cccc3Cl)c(Cl)nc3nccn23)CC1` [Compound 182, 5-(4-methylpiperidin-1-yl)-6-(2-chloro-6-fluorophenyl)-7-chloroimidazo[1,2-a]pyrimidine], for which the melting point came to 183.8 °C. The “areas of lesions on treated plant as % of infested areas on untreated groups” value in data set [1] is given as not above 1%. The “areas of lesions on treated plant as % of areas of lesions on untreated groups” value in data set [2] is not above 1%.
